This is an account of results in patent US20090105172A1, “Stabilized Aptamers to PSMA and Their Use as Prostate Cancer Therapeutics” (priority 2005, published 2009).

The target in one data set is T1, ECD PSMA (Homo sapiens, UniProt Q04609).
T1 construct: vector-derived N-terminal linker […]; made in house; host or cells: 293 Freestyle cells, pSecTag2B vector
Nature of the data set: Dot blot binding assay (nitrocellulose filter) with purified ECD PSMA. Conditions: A9 minimer, without tRNA. An excerpt: Protein Purification of ECD of PSMA: An I.M.A.G.E. clone (5202715) encoding full length recombinant human PSMA was purchased from Open Biosystems (Clone EHS1001-18533, Huntsville, Ala.). PCR was used to amplify the extracellular portion of the full length clone. An oligo with an N-terminal histidine tag was designed to engineer a construct which lacks the transmembrane domain residues 1-44. The his-tagged extracellular domain (ECD) was subcloned into the pSecTag2B expression vector (Invitrogen, Carlsbad, Calif.). The ECD of PSMA was purified in house from transfected 293 Freestyle cells (ATCC, Manassas, Va.). The amino acid sequence of the expressed protein comprising an N-terminal linker sequence of […] followed by eight Histidines is listed below: […] VSDr[…]a[…]r[…]rYV […] (SEQ ID NO 5)
Dot Blot Binding Analysis. Dot blot binding assays were performed throughout the selections to monitor the protein binding affinity of the pools. For initial pool screening, trace ^32P-labeled pool RNA was combined with PSMA and incubated at room temperature for 30 min in 1×SHMCK buffer pH 7.4 (20 mM Hepes pH 7.4, 120 mM NaCl, 5 mM KCl, 1 mM MgCl2, 1 mM CaCl2) plus 0.1 mg/mL tRNA in a final volume of 30 μl. The mixture was applied to a dot blot apparatus (Schleicher and Schuell Minifold-1 Dot Blot, Acrylic, Keene, N.H.), assembled (from top to bottom) with nitrocellulose, nylon, and gel blot membranes. RNA that is bound to protein is captured on the nitrocellulose filter; whereas the non-protein bound RNA is captured on the nylon filter. […] The Round 9 pool was cloned and screened in a single point dot blot assay using 100 nM PSMA (0 nM PSMA was used as a negative control). Clone transcripts were 5′ end labeled with ^32-P ATP. Likely binders were than assayed for KD determination by the blot assay conditions described directly above, but without tRNA, using an 8 point PSMA titration with a constant RNA concentration. […] Both of the clones screened were unique sequences in the Round 9 selection pool.
In order to identify the core structural elements required for ARC955 binding to PSMA, the 3′-boundaries of the clone was determined through alkaline hydrolysis. The parent RNA transcript was labeled at the 5′-end with γ-^32P ATP and T4 polynucleotide kinase. Radiolabeled ligands were subjected to partial alkaline hydrolysis and then selectively bound in solution to ECD PSMA (purified in house) at 100 nM before being passed through nitrocellulose filters (Centrex MF 1.5 mL, 0.45 μm, Schleicher & Schuell, Keene N.H.). Retained oligonucleotides were resolved on 8% denaturing polyacrylamide gels. The smallest oligonucleotide bound to PSMA defined the 3′-boundary. On the basis of the boundary experiments as well as visual inspection of predicted folds, truncated constructs were synthesized. Clones were then assayed by dot blot as previously described to determine their KD. […] The binding curve for ARC1091 in the dot blot assay is depicted in FIG. 5A, and the predicted secondary structure of ARC1091 is depicted in FIG. 5B. The KD and maximum % bound for the 3 minimized constructs with the overall highest PSMA affinity, as determined by a dot blot binding assay, are listed in Table 4. For the minimized rGmH aptamers described in Table 5 below, the guanosine triphosphates are 2′-OH and the adenosines triphosphates, cytidine triphosphates and uridine triphosphates are 2′-OMe. Unless noted otherwise, the individual sequences are represented in the 5′ to 3′ orientation. In some embodiments, the invention comprises aptamers with a nucleic acid sequence as described in Table 4 below. In some embodiments, the nucleic acid sequence of an aptamer described in Table 4 below additionally comprises a 3′ cap (e.g., an inverted dT cap), and/or 5′ amine (NH2) modification to facilitate chemical coupling, and/or conjugation to a high molecular weight, non-immunogenic compound (e.g., PEG). […]

The next data set deals with PSMA NAALADase activity (Homo sapiens, UniProt Q04609). Briefly: NAALADase inhibition assay. In kind it is biochemical. How it is done: These point mutant constructs were assessed for activity in terms of inhibition of PSMA NAALADase activity. The NAALADase assay was performed in 96 well format. PSMA aptamers were serially diluted in 1× reaction buffer (40 mM Tris-HCl, pH 7.4, 0.1 mM ZnSO4, 0.1 mg/in L BSA) in a standard 96 well plate to be tested at a final concentration range from 30 pM to 1 μM. The enzyme was prepared by diluting 30 μL of 100 nM PSMA into 8 mL of reaction buffer, and kept cool on ice. The substrate was prepared by adding 19 μl of NAAG [Glutamate-3,4-^3H], 50.8 Ci/mmol, 19.7 μM (Perkin-Elmer, Wellesley, Mass., NET1082) into 2.2 mL of reaction buffer.
Following preparation of all reagents, 4 μl of each serially diluted aptamer was added to a separate 96 well plate (the reaction plate). 76 μl of diluted enzyme was added to the corresponding wells containing aptamer. 80 μl of reaction buffer was added to one column of wells to serve as a background control. The diluted substrate and reaction plate were then moved to a room at 37° C. and allowed to equilibrate for 10 minutes. After temperature equilibration, 20 μl of the prepared substrate was added to each well using a 12 channel pipet for a final volume of 100 μl/well, and a final concentration of […] enzyme and 30 nM substrate per well. A column of wells containing enzyme and substrate only was used as a high control. The aptamer/enzyme/substrate reaction was incubated at 37° C. for 15 minutes, and stopped by the addition of 100 μl of quench buffer (100 mM sodium phosphate, pH 7.4, 2 mM EDTA).
To separate the cleavage products, […] and Glutamate, from the substrate, an AG 1-X8, 200-400 mesh, formate resin (BioRad, Hercules, Calif., # 140-1454) was used. The resin was prepared by forming a 1:1 slurry in H2O, and adding 140 μl per 96 well using a Multiscreen filter plate (Multiscreen, 1.2 μm filter plates (Millipore, Billerica, Mass., # MABVN1250)). […] The plate was sealed and read using a Packard Topcount Microplate Scintillation Counter. […]

Sequence of PSMA NAALADase activity (Q04609 with tags, fused parts or gaps limits assumed): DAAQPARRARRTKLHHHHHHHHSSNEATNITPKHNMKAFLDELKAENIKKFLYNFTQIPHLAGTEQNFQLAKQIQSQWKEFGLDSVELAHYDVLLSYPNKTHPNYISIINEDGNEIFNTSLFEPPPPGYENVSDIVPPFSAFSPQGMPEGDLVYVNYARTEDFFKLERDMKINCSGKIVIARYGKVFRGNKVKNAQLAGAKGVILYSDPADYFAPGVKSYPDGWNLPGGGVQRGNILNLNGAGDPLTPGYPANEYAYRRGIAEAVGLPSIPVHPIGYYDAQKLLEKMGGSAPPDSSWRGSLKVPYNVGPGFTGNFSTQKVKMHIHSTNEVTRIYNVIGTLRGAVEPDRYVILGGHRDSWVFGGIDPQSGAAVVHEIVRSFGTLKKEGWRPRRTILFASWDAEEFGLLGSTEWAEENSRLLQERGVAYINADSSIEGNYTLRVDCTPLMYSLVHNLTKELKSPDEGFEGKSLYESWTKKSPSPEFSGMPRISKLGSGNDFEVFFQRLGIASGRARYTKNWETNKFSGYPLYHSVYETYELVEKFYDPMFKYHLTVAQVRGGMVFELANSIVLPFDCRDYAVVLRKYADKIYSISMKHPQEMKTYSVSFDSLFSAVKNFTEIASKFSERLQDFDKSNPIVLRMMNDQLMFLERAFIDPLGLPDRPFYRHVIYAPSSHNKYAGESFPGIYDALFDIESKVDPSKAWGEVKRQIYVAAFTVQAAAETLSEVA
T1 sequence (Q04609 with tags, fused parts or gaps): as the sequence (Q04609 with tags, fused parts or gaps limits assumed) above

The Kd is the free concentration of one partner at which half of the binding sites on the other are occupied at equilibrium, for simple one-to-one binding. Low values mean tighter binding, high ones weaker binding. The IC50 is the concentration at which inhibition is half-maximal. “GGAGGAfCfCGAAAAAGAfCfCfUGAfCfUfUfCfUAfUAfCfUAAGfUfCfUAfCGfUfUfCfCfUfCfCA (GGAGGACCGAAAAAGACCUGACUUCUAUACUAAGUCUACGUUCCUCCA; 2'-fluoro at 7, 8, 17, 18, 19, 22, 23, 24, 25, 26, 28, 30, 31, 35, 36, 37, 39, 41, 42, 43, 44, 45, 46, 47, other sugars and backbone not given here) [ARC591, 48-nt minimer of A9]”: the equilibrium dissociation constant (Kd) with ECD PSMA came to 3.4 nM. For the same substance, the half-maximal inhibitory concentration (IC50) in the data set with PSMA NAALADase activity (read-out: apparent IC50, inhibition of NAALADase activity) worked out at 6.7 nM. Also, in the data set with PSMA NAALADase activity (relative to parent), the “activity in the NAALADase inhibition assay” value is given as “retained full functional activity”.
